Assay results as given in article PMC8952214 (Pharmaceuticals, 2022).
Read-outs that look alike come from different tables or passages of the source.

How the values were obtained:
[1] = test system: A/Parma/05/06 H3N2 (Wisconsin-like); assay: microbe, parasite or virus in culture; assay type: cell-based, Influenza A virus; settings: for EC50: Influenza A virus, H3N2, MDCK, 48 h, read-out: EC50 A/Parma H3N2
[2] = test system: A/Parma/05/06 H3N2 (Wisconsin-like); assay type: biochemical, Influenza A virus
A/H1N1 = settings: cited from earlier work
[3] = test system: A/RomaISS/02/08 H1N1 (Brisbane-like) oseltamivir-sensitive virus; settings: MDCK cells, c.p.e. by neutral red, 48 h; read-out: EC50 A/Roma H1N1; cited from earlier work
[4] = test system: A/RomaISS/02/08 H1N1 (Brisbane-like) oseltamivir-sensitive virus; settings: Table 1; turkey erythrocytes; cited from earlier work
Cytotoxicity assay = assay type: cell-based, canine; settings: dog, MDCK cells (confluent); read-out: CC50 cytotoxic concentration 50%
Method: Madin-Darby canine kidney (MDCK, ATCC, CRL-2936) cells were grown at 37 °C in minimal essential medium (MEM, Invitrogen, Paisley, UK) containing 1.2 g/L NaHCO3, and supplemented with 10% inactivated fetal calf serum (FCS, Invitrogen, Paisley, UK), 2 mM glutamine, nonessential amino acids, penicillin (100 IU/mL), and streptomycin (100 μg/mL).
This procedure was performed as reported elsewhere. Briefly, two-fold serial dilutions of each compound and DMSO or H2O in culture medium were incubated at 37 °C with confluent MDCK cells grown in 96-well tissue culture microplates (Nalge Nunc Europe Ltd., Neerijse, Belgium). After 24 and 48 h, the following parameters were evaluated: cell morphology was examined by light microscopy, cell viability was determined by neutral red staining as already described by us, and cell proliferation was evaluated quantitatively by microscopic counts after dispersion into individual cells with trypsin.

[5] = test system: A/RomaISS/02/08 H1N1 (Brisbane-like) oseltamivir-sensitive virus; assay: microbe, parasite or virus in culture; assay type: cell-based, Influenza A virus; settings: for EC50: Influenza A virus, H1N1, MDCK, 48 h, read-out: EC50 A/Roma H1N1
[6] = test system: A/RomaISS/02/08 H1N1 (Brisbane-like) oseltamivir-sensitive virus; assay type: biochemical, Influenza A virus

Row | Compound | SI (selectivity index) = CC50/EC50, A/Parma H3N2 [1] | HI Titer A/Parma H3N2 [2] | HI Titer A/Roma H1N1 [4] [µM] | CC50 (Cytotoxicity assay) [nM] | HI Titer A/Roma H1N1 [6] [pM] | other results
1 | Cc1ccc(S(=O)(=O)NC(C)c2ccc(-n3ccnc3)cc2)cc1C (stereo not drawn) [Compound 1] | 3 × 10^3 | 0.48 µM | 0.24 | 300000 | – | EC50 [1]: 98 nM; activity in hemolysis assays toward A/H1N1 (A/H1N1): active; EC50 [3]: 500 nM
2 | Fc1ccc(CNc2ncnc3[nH]cnc23)cc1 [Compound 2] | – | – | 0.48 | – | – | –
3 | COc1ccc(C(=O)Nc2cccc(S(=O)(=O)NCc3ccco3)c2)cc1 [Compound 3] | – | – | 0.48 | – | – | –
4 | Cc1ccc(F)cc1NC(=O)COC(=O)c1ccc2ccccc2n1 [Compound 4] | 2 × 10^3 | 0.48 µM | 0.48 | 250000 | – | EC50 [1]: 125 nM; activity in hemolysis assays toward A/H1N1 (A/H1N1): active; EC50 [3]: 62 nM
5 | Cc1ccc2nc(CNc3ccc(C)c(Cl)c3)cc(=O)n2c1 [Compound 5] | – | – | 0.48 | – | – | –
6 | O=C(CC1(O)C(=O)Nc2ccccc21)c1ccccn1 (stereo not drawn) [Compound 6] | 1.04 × 10^2 | 0.00048 µM | – | 31200 | – | EC50 [1]: 300 nM; SI (selectivity index) = CC50/EC50, A/Roma H1N1 [5]: 1.56 × 10^2; EC50 [5]: 200 nM
7 | N#Cc1ccc(NC(=O)COC(=O)c2ccccn2)cc1 [Compound 7] | 0.44 × 10^2 | 12,500 pM | – | 31200 | 0.047 | EC50 [1]: 700 nM; SI (selectivity index) = CC50/EC50, A/Roma H1N1 [5]: 0.39 × 10^2; EC50 [5]: 800 nM
8 | Cc1ccc(NC(=O)COC(=O)c2ccccn2)cc1F [Compound 13] | 0.62 × 10^2 | 6e-06 µM | – | 31200 | 24 | EC50 [5]: 700 nM
9 | O=C1CCCN1c1ccc(CNS(=O)(=O)c2ccc(F)cc2)cc1 [Compound 23] | – | – | – | – | 12 | –
10 | O=C(COC(=O)c1ccccn1)Nc1ccc2c(c1)CCC2 [Compound 24] | – | – | – | – | 0.024 | –
11 | COc1ccc(S(=O)(=O)NCc2ccc(-n3ccnc3)cc2)cc1F [Compound 25] | 0.39 × 10^2 | 50,000 pM | – | 31200 | – | SI (selectivity index) = CC50/EC50, A/Roma H1N1 [5]: 0.34 × 10^2; EC50 [5]: 900 nM
12 | Cc1nc(-c2cccc(NC(=O)COC(=O)c3ccc4ccccc4n3)c2)cs1 [Compound 26] | – | – | – | – | 0.093 | –
13 | CC(NS(=O)(=O)c1ccc2c(c1)CCC(=O)N2)c1ccc(-n2ccnc2)cc1 (stereo not drawn) [Compound 27] | – | 25,000 pM | – | – | – | –
14 | Cc1ccc(S(=O)(=O)Nc2ccc(-n3ccnc3)c(Cl)c2)cc1 [Compound 28] | – | – | – | – | 0.093 | –
